These results are taken from ChEMBL document CHEMBL1139164, “Optimization of halopemide for phospholipase D2 inhibition” (Bioorg Med Chem Lett, 2007).

In data set [1] the target is T1, Phospholipase D2 (Homo sapiens, UniProt O14939). Kind of data set: Inhibition of PLD2 at 1 uM.
The target of data set [2] is T1, Phospholipase D2.
The nature of data set [3]: Half life in rat at 5 mg/kg, po or 1 mg/kg, iv. Format: ADME, organism-based. Conditions: in vivo.
Data set [4] is described as follows: Oral bioavailability in rat at 5 mg/kg. Format: ADME, organism-based. The following applies: in vivo.
The subject of a further data set is Rattus norvegicus. Kind of data set: AUC in rat at 5 mg/kg, po or 1 mg/kg, iv. Format: ADME, organism-based, Plasma. Conditions: in vivo.
Data set [5] can be described thus: Clearance in rat at 5 mg/kg, po or 1 mg/kg, iv. The following applies: in vivo. Format: ADME, organism-based.
The nature of data set [6]: Cmax in rat at 5 mg/kg, po or 1 mg/kg, iv. Type of data set: ADME, organism-based. The following applies: in vivo.

T1 sequence (O14939 whole entry): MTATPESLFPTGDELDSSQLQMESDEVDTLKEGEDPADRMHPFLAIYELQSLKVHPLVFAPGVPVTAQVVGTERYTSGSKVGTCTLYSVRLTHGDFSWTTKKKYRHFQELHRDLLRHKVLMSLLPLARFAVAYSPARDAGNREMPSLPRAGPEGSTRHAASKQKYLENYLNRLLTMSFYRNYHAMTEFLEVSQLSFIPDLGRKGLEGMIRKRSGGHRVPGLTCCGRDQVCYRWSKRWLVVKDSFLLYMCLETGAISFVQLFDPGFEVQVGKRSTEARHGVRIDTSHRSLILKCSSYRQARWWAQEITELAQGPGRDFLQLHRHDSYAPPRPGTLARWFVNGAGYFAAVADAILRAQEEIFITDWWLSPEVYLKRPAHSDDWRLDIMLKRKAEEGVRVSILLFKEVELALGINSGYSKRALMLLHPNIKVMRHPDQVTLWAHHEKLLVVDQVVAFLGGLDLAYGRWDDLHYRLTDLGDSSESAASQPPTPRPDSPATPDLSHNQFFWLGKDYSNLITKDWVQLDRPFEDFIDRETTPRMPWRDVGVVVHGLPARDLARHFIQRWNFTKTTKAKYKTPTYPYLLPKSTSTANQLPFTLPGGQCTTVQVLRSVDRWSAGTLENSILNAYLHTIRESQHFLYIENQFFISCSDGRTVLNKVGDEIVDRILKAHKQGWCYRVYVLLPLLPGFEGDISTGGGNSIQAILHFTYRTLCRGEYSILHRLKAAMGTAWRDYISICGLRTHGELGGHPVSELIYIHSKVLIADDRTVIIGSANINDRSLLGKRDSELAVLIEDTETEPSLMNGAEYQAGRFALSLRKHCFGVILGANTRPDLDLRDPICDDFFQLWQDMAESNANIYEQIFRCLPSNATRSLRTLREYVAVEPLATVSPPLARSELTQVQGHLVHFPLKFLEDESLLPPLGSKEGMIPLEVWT

In general, inhibition refers to the percentage by which the read-out fell short of the control. A lower inhibition goes with a weak effect. As to `Cn1c(C(=O)NCCN2CCC(n3c(=O)[nH]c4ccccc43)CC2)cc2ccccc21`, the inhibition against Phospholipase D2 [1] was 0%.

In the case of `CC(C)C(=O)NCCN1CCC(n2c(=O)[nH]c3ccccc32)CC1`, on Phospholipase D2 [1], the inhibition came out at 0%.

Consider `O=C(NCCN1CCC(n2c(=O)[nH]c3ccccc32)CC1)OCc1ccccc1`, for which the inhibition at Phospholipase D2 [1] worked out at 0%.

As for `CC(C)CC(=O)NCCN1CCC(n2c(=O)[nH]c3ccccc32)CC1`, the inhibition at Phospholipase D2 [1] was 0%.

As for `O=C(Cc1ccc(F)cc1)NCCN1CCC(n2c(=O)[nH]c3ccccc32)CC1`, on Phospholipase D2 [1], the inhibition was found to be 0%.

In general, IC50 refers to the concentration needed to halve the response being measured. On to `O=C(NCCN1CCC(n2c(=O)[nH]c3ccccc32)CC1)c1ccccc1`, for which the IC50 on Phospholipase D2 [2] turned out to be 1.5 µM.

`O=C(NCCN1CCC(n2c(=O)[nH]c3ccccc32)CC1)c1ccsc1` returned an IC50 on Phospholipase D2 [2] of 1 µM.

`O=C(NCCN1CCC(n2c(=O)[nH]c3ccccc32)CC1)c1ccc(F)cc1` displayed an IC50 against Phospholipase D2 [2] of 1.41 µM.

Consider `O=C(NCCN1CCC(n2c(=O)[nH]c3ccccc32)CC1)c1cc2ccccc2s1`, for which the concentration for half-maximal inhibition (IC50) against Phospholipase D2 [2] is 2 µM. The IC50 values of the last two compounds are within 1.5-fold of each other.

For orientation: half-life means the time needed for the level to fall by half in the phase considered. Higher therefore signals slow loss. The term bioavailability denotes the share of a dose that reaches the circulation, judged against a reference dose that is usually intravenous. Low values mean poor availability, high ones good availability. A word on the Cmax: it is the highest concentration seen after dosing. As for `O=C(NCCN1CCC(n2c(=O)[nH]c3ccccc32)CC1)c1cc2cc(F)ccc2[nH]1`, in data set [3], the half-life was 5.57 h. For the same compound, the bioavailability in data set [4] turned out to be 18.5%. The compound also gave an AUC in the data set with Rattus norvegicus of 1.03 uM.hr/L. The compound also showed a clearance in data set [5] of 36.3 mL/min/kg. In data set [6], this compound gave a peak concentration (Cmax) of 363 nM. For the same compound, the IC50 at Phospholipase D2 [2] was found to be 0.02 µM.

Take `O=C(NCCN1CCC(n2c(=O)[nH]c3ccccc32)CC1)c1cc2ccccc2[nH]1`: the concentration for half-maximal inhibition (IC50) against Phospholipase D2 [2] worked out at 0.02 µM.

The compound `O=C(CCc1ccc(F)cc1)NCCN1CCC(n2c(=O)[nH]c3ccccc32)CC1` displayed an inhibition against Phospholipase D2 [1] of 0%.
